Measured values as given in ChEMBL document CHEMBL1201862, “PubChem BioAssay data set” (2004).
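Interpolation was linear, between the two tested concentrations surrounding the appropriate level; five concentrations were tested over 48 hours in 96-well plates. GI50 marks 50% less growth.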 The source made the active and inactive calls. No stated cut-off is given here; in the data, active = GI50 up to about 1.1 µM and inactive = higher.

Columns and labels:
Test in all cases: NCI tumour cell line growth inhibition, 48 h
M14 = test system: M14
HL-60 = test system: HL-60
SK-OV-3 = test system: SK-OV-3
IGROV-1 = test system: IGROV-1
SW-620 = test system: SW-620
SR = test system: SR
Hs-578T = test system: Hs-578T
TK-10 = test system: TK-10
UACC-62 = test system: UACC-62
CCRF-CEM = test system: CCRF-CEM
SF-268 = test system: SF-268
HOP-92 = test system: HOP-92
MCF7 = test system: MCF7
OVCAR-5 = test system: OVCAR-5
SK-MEL-28 = test system: SK-MEL-28
ACHN = test system: ACHN
Malme-3M = test system: Malme-3M
U-251 = test system: U-251
SF-539 = test system: SF-539
OVCAR-3 = test system: OVCAR-3

Row | SMILES | GI50 (M14) | GI50 (HL-60) | GI50 (SK-OV-3) | GI50 (IGROV-1) | GI50 (SW-620) | GI50 (SR) | GI50 (Hs-578T) | GI50 (TK-10) | GI50 (UACC-62) | GI50 (CCRF-CEM) | GI50 (SF-268) | GI50 (HOP-92) | GI50 (MCF7) | GI50 (OVCAR-5) | GI50 (SK-MEL-28) | GI50 (ACHN) | GI50 (Malme-3M) | GI50 (U-251) | GI50 (SF-539) | GI50 (OVCAR-3)
1 | NCc1ccc(O)c(O)c1O | 14.3 µM (inactive) | 30.3 µM (inactive) | > 78 µM (inactive) | 38.9 µM (inactive) | 20 µM (inactive) | 30.1 µM (inactive) | 10.7 µM (inactive) | > 100 µM (inactive) | 27.1 µM (inactive) | 10.9 µM (inactive) | 28.3 µM (inactive) | > 58.6 µM (inactive) | 16.8 µM (inactive) | 17.3 µM (inactive) | 62.5 µM (inactive) | 23.4 µM (inactive) | 71.1 µM (inactive) | 24.9 µM (inactive) | 27.1 µM (inactive) | 22.1 µM (inactive)
2 | C=CCCCCCCCCC(=O)ON(Cc1ccc(O)c(OC)c1)C(=O)C(F)(F)F | > 100 µM (inactive) | 12.4 µM (inactive) | > 100 µM (inactive) | > 100 µM (inactive) | > 100 µM (inactive) | 22.9 µM (inactive) | 10.8 µM (inactive) | > 100 µM (inactive) | 49 µM (inactive) | 10 µM (inactive) | > 100 µM (inactive) | 34.2 µM (inactive) | > 100 µM (inactive) | > 100 µM (inactive) | > 100 µM (inactive) | > 100 µM (inactive) | > 100 µM (inactive) | > 100 µM (inactive) | > 100 µM (inactive) | –
3 | C=CCC1(O)C(=O)OC2C(O)COC21O (stereo not given) | > 100 µM (inactive) | > 100 µM (inactive) | > 100 µM (inactive) | > 100 µM (inactive) | > 100 µM (inactive) | > 100 µM (inactive) | > 100 µM (inactive) | > 100 µM (inactive) | > 100 µM (inactive) | > 100 µM (inactive) | > 100 µM (inactive) | > 100 µM (inactive) | > 100 µM (inactive) | > 100 µM (inactive) | 23 µM (inactive) | > 100 µM (inactive) | > 100 µM (inactive) | > 100 µM (inactive) | > 100 µM (inactive) | > 100 µM (inactive)
4 | OCC1OC(n2cnc3c2N=CNC[C@H]3O)C(Cl)C1O (stereo not given in full) | > 100 µM (inactive) | > 100 µM (inactive) | – | > 100 µM (inactive) | > 100 µM (inactive) | > 100 µM (inactive) | > 100 µM (inactive) | > 100 µM (inactive) | > 100 µM (inactive) | > 100 µM (inactive) | > 100 µM (inactive) | > 100 µM (inactive) | > 100 µM (inactive) | > 100 µM (inactive) | > 100 µM (inactive) | > 100 µM (inactive) | > 100 µM (inactive) | > 100 µM (inactive) | > 100 µM (inactive) | > 100 µM (inactive)
5 | CC1(C)CCCCCCCCCC(C)(CCCO)C1=O (stereo not given) | 14.3 µM (inactive) | 19.7 µM (inactive) | 17.4 µM (inactive) | 17.4 µM (inactive) | 19.7 µM (inactive) | 35.2 µM (inactive) | 20.6 µM (inactive) | – | 18.4 µM (inactive) | 28.9 µM (inactive) | 18.2 µM (inactive) | 14.5 µM (inactive) | 17.1 µM (inactive) | 15.5 µM (inactive) | 18.2 µM (inactive) | 17.9 µM (inactive) | 16.8 µM (inactive) | 16.8 µM (inactive) | – | 19.6 µM (inactive)
6 | COC(=O)c1c(OC(C)=O)ccc2c1c1c(OC(C)=O)c3ccccc3c(OC(C)=O)c1n2Cc1ccccc1 | 2.93 µM (inactive) | 3.33 µM (inactive) | 3.67 µM (inactive) | 4.09 µM (inactive) | – | 1.64 µM (inactive) | 16.9 µM (inactive) | 13 µM (inactive) | 2.72 µM (inactive) | 6.68 µM (inactive) | 3.44 µM (inactive) | 0.658 µM (active) | 13.5 µM (inactive) | 7.46 µM (inactive) | 9.77 µM (inactive) | 11.8 µM (inactive) | 7.8 µM (inactive) | 2.43 µM (inactive) | 1.61 µM (inactive) | 1.21 µM (inactive)
7 | O=C(ON=C1c2ccccc2C(Br)C(Br)c2ccccc21)c1ccccc1 (stereo not given) | 17.3 µM (inactive) | 0.59 µM (active) | 18.6 µM (inactive) | 2.44 µM (inactive) | 8.49 µM (inactive) | 3.09 µM (inactive) | 21.5 µM (inactive) | 15.8 µM (inactive) | 16.7 µM (inactive) | 0.673 µM (active) | 20.7 µM (inactive) | 1.17 µM (inactive) | 14.9 µM (inactive) | 18.8 µM (inactive) | 18.2 µM (inactive) | 17.7 µM (inactive) | 20.7 µM (inactive) | 17.7 µM (inactive) | 7.01 µM (inactive) | 14.8 µM (inactive)
